Assay results reported in patent US20060223729A1, “Photodynamic inactivation of bacterial spores” (priority 2003, published 2006).

Columns and labels:
B. thuringiensis spores = test: Photodynamic inactivation (PDI) of B. thuringiensis spores, colony-forming units; assay type: cell-based, B. thuringiensis (ATCC 33740); conditions: 100 μM, 1 hour, 100 mW/cm^2 appropriate wavelength light, 0 to 32 J/cm^2 (FIG. 9, FIG. 10)
Experimental: (§1) The bacteria studied in the following examples were B. atrophaeus (ATCC 9372), B. cereus (ATCC14579), B. thuringiensis (ATCC 33740) and B. subtilis (ATCC 6051). Growing bacterial cells were cultivated in brain-heart infusion (BHI) broth at 37° C. Aliquots of the suspension (10^8/mL) were stored at −80° C. and then used for the experiments.
(§2) For initial experiments spores of B. atrophaeus and B. cereus were purchased from SGM Biotech, Inc (Bozeman, Mont., USA). For subsequent experiments spores of all species were prepared in the laboratory using sporulation broth for B. atrophaeus and B. subtilis, or sporulation agar (Caipo et al., 2002; Nicholson & Setlow, 1990) for B. cereus and B. thuringiensis. The sporulation medium consisted of 16.0 g nutrient broth (Difco), 2.0 g KCl, 0.5 g MgSO4; 17 g of agar. The pH of the medium was adjusted to 7, then autoclaved and cooled. After cooling 1 ml of 1M […], 1 ml of 0.1 M MnCl2.4H2O, 1 ml of 1 mM FeSO4 and 2 ml 50% glucose were added. For spore purification the mixture of spores and cells was centrifuged at 1300 g for 20 min, washed with SX volume 1 M KCl/0.5 M NaCl, rinsed with sterile deionized water, then washed with 1 M NaCl, and rinsed with sterile deionized water again. Lysozyme (50 μg/mL) was added in the presence of buffer (5× volume Tris Cl, 0.05 M, pH 7 2), and incubated with constant stirring at 4° C. overnight. Lysozyme was removed by centrifuging 8 times (at 1300 g) and washing with sterile deionized water. Spores were frozen with 10% glycerol and stored until use. To avoid germination spores were used immediately after defrosting.
(§3) As photosensitizers Rose Bengal, Toluidine Blue O (TBO), Methylene Blue, New Methylene Blue N zinc chloride double salt (NMB), 1,9-Dimethylmethylene Blue Chloride (Sigma-Aldrich—DMMB), Azure A, Azure B, Azure C, methylene violet 3RAX, safranine O, and malachite green, were used. Stock solutions were prepared in water and stored at 4° C. in the dark before use. The concentrations of stock solution were 2 mM.
(§4) When Rose Bengal was used, irradiation was performed with an argon laser at 514 nm. A diode laser with wavelength 670 nm was used for experiments with Methylene Blue and 1,9-Dimethylmethylene Blue Chloride. Diode laser with wavelength 635 nm was used for Toluidine Blue O and New Methylene Blue N. For other dyes either a turnable argon ion pumped dye laser or a 514 nm argon ion laser was used.
(§5) Suspensions of spores or bacteria (10^8/mL, 10^7/mL, 10^6/mL) were incubated with photosensitizers in the dark at room temperature. Incubation time was ranged from 1 min to 24 h and the photosensitizer concentrations varied form 10 μM to 1 mM. The cell suspensions were centrifuged at 20800 g and then washed several times with sterile PBS. The bacterial suspensions were placed on two well (concavities hanging drop) slides (Fisher Scientific) and irradiated with appropriate laser at room temperature. Fluences ranged from 0 to 300 J/cm^2. Fluence rates varied from 0 to 500 mW/cm^2. During irradiation aliquots of 20 μL were taken to determine the colony-forming units. The contents of the wells were mixed before sampling. The aliquots were serially diluted 10-fold in PBS to give dilutions of 10^−1-10^−6 times the original concentrations and were streaked horizontally on square BHI agar plates as described by (Jett et al., 1997). Plates were incubated at 37° C. overnight.
(§6) Two types of control conditions were used: irradiation in the absence of photosensitizers and incubation with photosensitizers in the dark.

B. cereus spores = test: Photodynamic inactivation (PDI) of B. cereus spores, colony-forming units; assay type: cell-based, B. cereus (ATCC14579); conditions: for photodynamic killing of spores: 100 mW/cm^2 appropriate wavelength light, 0 to 32 J/cm^2 (FIG. 5, FIG. 8)
Experimental: as §1, §2, §3, §4, §5, §6

B. subtilis spores = test: Photodynamic inactivation (PDI) of B. subtilis spores, colony-forming units; assay type: cell-based, B. subtilis (ATCC 6051); conditions: needs ten times the dye and six times the light of B. cereus and B. thuringiensis; 100 mW/cm^2 635-nm light (FIG. 3)
Experimental: as §1
as §2, with “Lysozyme was removed by centrifuging 8 times (at 1300 g) and washing with sterile deionized water. Spores were frozen with 10% glycerol and stored until use. To avoid germination spores were used immediately after defrosting.” left out

[1] = system: B. cereus vegetative cells; test: Photoinactivation of B. cereus vegetative cells; assay type: cell-based, B. cereus (ATCC14579); conditions: 10(7)/mL, 3 hours at 37° C., 100 mW/cm^2 635-nm light (FIG. 13)
Experimental: as §1
as §5, with “overnight. […]” for “overnight.”

[2] = system: B. subtilis vegetative cells; test: Photoinactivation of B. subtilis vegetative cells; assay type: cell-based, B. subtilis (ATCC 6051); conditions: 10(7)/mL, 3 hours at 37° C., 100 mW/cm^2 635-nm light (FIG. 13)
Experimental: as §1
as §5, with “overnight. […]” for “overnight.”

| Compound | photodynamic killing of spores (B. thuringiensis spores) | photodynamic killing of spores (B. cereus spores; 100 μM, 1 hour) | other results |
| --- | --- | --- | --- |
| CN(C)c1ccc2nc3ccc(N)cc3[s+]c2c1.[Cl-] [Azure A] | effective | effective | – |
| CNc1ccc2nc3ccc(=[N+](C)C)cc-3sc2c1.[Cl-] [Azure B] | effective | effective | – |
| CNc1ccc2nc3ccc(N)cc3[s+]c2c1.[Cl-] [Azure C] | effective | effective | rank of potency among the dyes of FIG. 5 (B. cereus spores; 100 μM, 1 hour, 100 mW/cm^2 (FIG. 5)): most potent |
| Cc1cc(N(C)C)cc2[s+]c3cc(N(C)C)cc(C)c3nc12.[Cl-] [DMMB, 1,9-Dimethylmethylene Blue Chloride] | effective | – | effect of incubation time on effectiveness of killing (B. cereus spores; 50 μM DMMB, 1 minute to 24 hours incubation, 670 nm light (FIG. 7)): effectiveness of killing increases with increasing incubation time; killing of spores in PDI (B. cereus spores; DMMB, 670 nm light (FIG. 7)): effective |
| Cc1cc2nc3ccc(N(C)C)cc3[s+]c2cc1N.[Cl-] [TBO, Toluidine Blue O] | effective | – | killing of spores (B. subtilis spores): more than 99.9%; sensitivity of vegetative cells to PDI [1]: sensitive to PDI; sensitivity of vegetative cells to PDI [2]: sensitive to PDI; killing of spores as a function of concentration and light fluence (B. cereus spores; 10 μM, 100 μM or 1 mM, 10 minutes, 100 mW/cm^2 635-nm light (FIG. 2)): improved, depending on both TBO concentration and light fluence; most effective incubation period (B. cereus spores; 50 μM TBO (FIG. 6)): ≥ 3 h; effect of incubation time on effectiveness of killing (B. cereus spores; 50 μM TBO, 1 minute to 24 hours incubation (FIG. 6)): effectiveness of killing increases with increasing incubation time; spores killed (B. cereus spores; 100 μM, 10 minutes incubation, 100 mW/cm^2 635-nm light (FIG. 1)): greater than 99.9%; killing of spores at the first lowest light dose tested (B. cereus spores; 1 mM dose, 10 minutes, 100 mW/cm^2 635-nm light (FIG. 2)): complete killing; dark toxicity to spores (B. cereus spores; 1 mM dose, 10 minutes, no light (FIG. 2)): significant dark toxicity |
| CN(C)c1ccc(C(=C2C=CC(=[N+](C)C)C=C2)c2ccccc2)cc1 [malachite green] | – | effective | – |
| CN(C)c1ccc2nc3ccc(=[N+](C)C)cc-3sc2c1 [methylene blue, Methylene Blue] | – | effective | – |
| CCN(CC)c1ccc2nc3ccc(N)cc3[n+](-c3ccccc3)c2c1.[Cl-] [methylene violet 3RAX] | – | effective | – |
| Cc1cc2nc3cc(C)c(N)cc3[n+](-c3ccccc3)c2cc1N.[Cl-] [safranin O, safranine O] | – | effective | – |
| New Methylene Blue N zinc chloride double salt [NMB] | effective | effective | – |
